Assay results published in PubChem BioAssay (NCI).
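How tested: cells in 96-well plates exposed to compound for 48 hours at five concentrations. Definition used: TGI = concentration required for complete inhibition of growth.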

Legend:
Experiment in all cases: NCI-60 cell line screen, 48 h
[1] = tested on: EKVX NSCLC
[2] = tested on: HCT-15 colon
[3] = tested on: HOP-92 NSCLC
[4] = tested on: IGROV1 ovarian
[5] = tested on: MCF7 breast
[6] = tested on: NCI-H226 lung
[7] = tested on: NCI/ADR-RES ovarian
[8] = tested on: OVCAR-5 ovarian
[9] = tested on: SK-OV-3 ovarian
[10] = tested on: UACC-257 melanoma
[11] = tested on: UACC-62 melanoma

| SMILES | TGI [1] [µM] | TGI [2] [µM] | TGI [3] [µM] | TGI [4] [µM] | TGI [5] [µM] | TGI [6] [µM] | TGI [7] [µM] | TGI [8] [µM] | TGI [9] [µM] | TGI [10] [µM] | TGI [11] [µM] |
| --- | --- | --- | --- | --- | --- | --- | --- | --- | --- | --- | --- |
| S=C(NCc1ccccc1)Nc1sc(=NCc2ccccc2)nc2sc3c(c12)CCN(N1CCc2c(sc4nc(=NCc5ccccc5)sc(NC(=S)NCc5ccccc5)c24)C1)C3 | > 64.1 | > 66.7 | > 100 | > 100 | > 62.2 | 99.7 | > 100 | > 85.2 | 99.6 | > 78.4 | > 75.2 |
| O=c1[nH]c(NCc2cccnc2)nc2nc[nH]c12 | > 100 | > 100 | > 100 | > 100 | > 100 | > 100 | > 100 | > 100 | > 100 | > 100 | > 100 |
| C=C1C(C(=O)OC)[C@H]1C(=O)OC (some centres undefined) | > 100 | > 100 | > 100 | > 100 | > 100 | > 100 | > 100 | > 100 | > 100 | > 100 | > 100 |
| COC(=O)C1=C(C)NC(=O)N2[C@@H](CCOCc3ccccc3)CC[C@@H]12 | > 50 | > 50 | > 50 | > 50 | > 50 | > 50 | > 50 | > 50 | > 50 | > 50 | > 50 |
| O=C(Cc1ccc2ccccc2c1)NCc1ccc(C(=O)NCCc2ccccc2)cc1 | > 100 | > 100 | > 100 | > 100 | > 100 | > 100 | > 100 | > 100 | > 100 | > 100 | > 100 |
| C=C1C2CCC3C4(C)CCCC(C)(C(=O)O)C4CCC3(C2)C1OC(=O)/C(C)=C/C (centres undefined) | > 100 | 61.6 | 54.6 | > 100 | 70.8 | > 100 | 53.6 | 79.5 | 70.2 | > 100 | 62.2 |
| Cc1ccc2nc3ccccc3c(C3C4C(=O)N(c5ccc(F)cc5)C(=O)C4ON3C(C(N)=O)c3ccccc3)c2c1 (centres undefined) | > 100 | > 100 | > 100 | > 100 | 80.8 | > 100 | 90.2 | > 100 | > 100 | > 100 | > 100 |
| O=c1[nH]c(Nc2ccc(Br)c(C(F)(F)F)c2)nc2nc[nH]c12 | > 100 | > 100 | > 100 | > 100 | > 100 | > 100 | > 100 | > 100 | > 100 | > 100 | 61.6 |
| Cn1c(-c2ccco2)ccc1-c1ccc(C=O)o1 | > 100 | > 100 | > 100 | > 100 | > 100 | > 100 | > 100 | > 100 | > 100 | > 100 | > 100 |
| Cc1nc(-c2ccccc2)cn2c1nc1ccccc12 | > 59.6 | > 68.5 | 62.6 | 57.1 | 23.4 | 41.1 | 55.7 | > 31.6 | 26 | > 82.3 | 31.7 |
| COC(=O)[C@H](Cc1ccccc1)NC(=O)c1ccc(CNC(=O)/C=C/c2ccc(OCc3ccccc3)cc2)cc1 | 87.6 | > 100 | 9.43 | 9.66 | > 100 | 49.8 | > 78 | > 81.6 | 59.9 | 7.33 | 18.6 |
| CN(C)CCNc1ccc2ncn3c4ccc(O)cc4c(=O)c1c23 | 17.5 | 10.2 | 13.8 | 8.87 | 4.91 | 3.47 | 18.9 | 15 | 17 | 19.7 | 15.9 |
| O=C(Nc1ccccc1)N(CCN(Cc1ccccc1)C(=O)Nc1ccccc1)CCN(Nc1ccccc1)C(=O)Nc1ccccc1 | > 100 | > 100 | > 100 | > 100 | > 100 | > 100 | > 100 | > 100 | > 100 | > 100 | > 100 |
| O=C(O)c1nc2cc(Cl)ccc2[nH]c1=O | > 100 | > 100 | > 100 | > 100 | > 100 | > 100 | > 100 | > 100 | > 100 | > 100 | > 100 |
| COC(=O)c1ccc(NCc2cc(OC)ccc2OC)cc1 | > 100 | > 100 | > 100 | > 100 | > 100 | > 100 | > 100 | > 100 | > 100 | > 100 | > 100 |
| Cn1c(-c2ccc(C=O)o2)ccc1-c1ccc(C=O)o1 | > 100 | > 100 | > 100 | > 100 | > 100 | > 100 | > 100 | > 100 | > 100 | > 100 | > 100 |
| Cc1ccc(S(=O)(=O)n2cc(C=O)c(-c3cn(S(=O)(=O)c4ccc(C)cc4)cc3-c3cn(S(=O)(=O)c4ccc(C)cc4)cc3C=O)c2)cc1 | > 100 | > 100 | > 100 | > 100 | 87.2 | > 100 | > 100 | > 100 | > 100 | > 100 | > 100 |
| COc1ccc(/[N+]([O-])=C/c2ccc(OC(=S)S)c(OC)c2)cc1 | > 100 | > 100 | 81 | > 100 | > 100 | > 100 | 92.3 | > 100 | > 100 | > 100 | > 100 |
| C#C[C@]1(O)CC[C@H]2[C@@H]3CCC4=C/C(=N\OCCN5CCCCC5)CC[C@]4(C)[C@H]3CC[C@@]21C | 19.9 | 23 | 50.8 | 19.1 | 15.6 | 39.5 | 15.4 | 28.1 | 31.2 | 12.8 | 10.7 |
